In ChEMBL document CHEMBL1909046, “DrugMatrix in vitro pharmacology data”:

Assays:
Substance-K receptor = target: T1, Substance-K receptor (Homo sapiens, UniProt P21452); format: cell membranes, CHO, Membrane; settings: cho; further: in other assays of this panel Not Active means under 50% inhibition at 10 µM
T1 sequence (P21452 whole entry): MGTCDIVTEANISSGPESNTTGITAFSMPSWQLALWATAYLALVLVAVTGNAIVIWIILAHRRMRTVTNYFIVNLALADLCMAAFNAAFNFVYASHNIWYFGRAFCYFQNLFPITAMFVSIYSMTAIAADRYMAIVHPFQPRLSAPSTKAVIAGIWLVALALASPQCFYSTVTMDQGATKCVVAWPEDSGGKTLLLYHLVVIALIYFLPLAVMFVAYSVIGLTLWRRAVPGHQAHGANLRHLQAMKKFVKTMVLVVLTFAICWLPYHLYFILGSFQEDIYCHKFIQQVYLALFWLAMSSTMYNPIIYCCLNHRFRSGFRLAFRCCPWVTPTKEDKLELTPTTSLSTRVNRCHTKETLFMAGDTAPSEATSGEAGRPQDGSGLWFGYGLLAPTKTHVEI

[1] = target: C-C chemokine receptor type 5 (Homo sapiens, UniProt P51681); format: cell membranes, Membrane; settings: hek293; further: in other assays of this panel Not Active means under 50% inhibition at 10 µM
[2] = target: T2, Muscarinic acetylcholine receptor M5 (Homo sapiens, UniProt P08912); format: cell membranes, Membrane; settings: cho-k1; further: in other assays of this panel Not Active means under 50% inhibition at 10 µM
T2 sequence (P08912 whole entry): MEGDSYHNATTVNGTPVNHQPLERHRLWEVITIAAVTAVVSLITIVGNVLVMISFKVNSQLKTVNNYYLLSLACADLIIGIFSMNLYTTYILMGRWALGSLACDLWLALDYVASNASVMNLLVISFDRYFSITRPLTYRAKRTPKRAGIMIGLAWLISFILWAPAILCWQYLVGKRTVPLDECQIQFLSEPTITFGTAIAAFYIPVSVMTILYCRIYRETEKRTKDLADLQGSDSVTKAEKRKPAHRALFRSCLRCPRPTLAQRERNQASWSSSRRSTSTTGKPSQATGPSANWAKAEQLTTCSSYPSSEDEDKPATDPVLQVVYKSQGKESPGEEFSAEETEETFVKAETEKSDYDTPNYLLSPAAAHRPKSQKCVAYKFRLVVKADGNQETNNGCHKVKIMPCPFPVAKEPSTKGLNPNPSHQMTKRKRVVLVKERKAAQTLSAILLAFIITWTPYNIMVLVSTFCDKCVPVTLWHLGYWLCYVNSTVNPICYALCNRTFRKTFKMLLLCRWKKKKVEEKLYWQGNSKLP

[3] = DRUGMATRIX: Platelet-Derived Growth Factor (PDGF) radioligand binding (ligand: [125I] PDGF); format: cell-based; settings: nih3t3; Not Active = under 50% inhibition at 10 µM
[4] = target: Tyrosine-protein kinase Fyn (Homo sapiens, UniProt P06241); assay: biochemical; format: cell-based, Insect cells; settings: insect cells;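 further: enzymatic inhibition of Fyn kinase activity measured with Poly(Glu:Tyr) as the phosphorylation substrate; in other assays of this panel Not Active means under 50% inhibition at 10 µM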
[5] = target: T3, 5-hydroxytryptamine receptor 1A (Rattus norvegicus, UniProt P19327); format: cell membranes, CHO-K1, Membrane; settings: cho-k1; further: in other assays of this panel Not Active means under 50% inhibition at 10 µM
T3 sequence (P19327 whole entry): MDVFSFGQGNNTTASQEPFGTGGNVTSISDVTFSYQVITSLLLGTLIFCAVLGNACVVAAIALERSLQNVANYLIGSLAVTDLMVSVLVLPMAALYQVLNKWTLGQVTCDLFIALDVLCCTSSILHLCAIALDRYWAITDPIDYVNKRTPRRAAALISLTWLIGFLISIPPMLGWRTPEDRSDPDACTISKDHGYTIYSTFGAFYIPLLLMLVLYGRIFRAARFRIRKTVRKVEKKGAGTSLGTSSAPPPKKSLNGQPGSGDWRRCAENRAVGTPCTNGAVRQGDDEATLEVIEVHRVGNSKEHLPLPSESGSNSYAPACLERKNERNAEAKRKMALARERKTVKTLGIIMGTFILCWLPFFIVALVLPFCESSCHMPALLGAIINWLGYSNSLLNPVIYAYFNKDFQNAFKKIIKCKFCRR

Cytochrome P450 3A4 = Cytochrome P450 3A4 (Homo sapiens, UniProt P08684); settings: bti-tn-5b1-4; further: in other assays of this panel Not Active means under 50% inhibition at 10 µM
Sequence of Cytochrome P450 3A4 (P08684 whole entry): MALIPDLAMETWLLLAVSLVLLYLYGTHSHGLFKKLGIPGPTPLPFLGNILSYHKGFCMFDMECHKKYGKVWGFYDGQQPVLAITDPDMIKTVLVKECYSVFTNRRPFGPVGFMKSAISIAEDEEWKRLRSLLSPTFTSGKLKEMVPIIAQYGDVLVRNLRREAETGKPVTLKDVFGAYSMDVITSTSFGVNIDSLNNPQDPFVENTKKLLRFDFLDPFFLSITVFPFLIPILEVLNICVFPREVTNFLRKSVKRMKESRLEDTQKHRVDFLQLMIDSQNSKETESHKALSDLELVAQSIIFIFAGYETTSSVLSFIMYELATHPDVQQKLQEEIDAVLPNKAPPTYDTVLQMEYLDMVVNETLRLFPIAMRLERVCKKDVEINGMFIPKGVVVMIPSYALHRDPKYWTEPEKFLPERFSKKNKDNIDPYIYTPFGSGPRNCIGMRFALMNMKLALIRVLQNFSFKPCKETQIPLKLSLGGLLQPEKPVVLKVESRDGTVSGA

Sequence of Tyrosine-protein kinase Fyn (P06241 whole entry): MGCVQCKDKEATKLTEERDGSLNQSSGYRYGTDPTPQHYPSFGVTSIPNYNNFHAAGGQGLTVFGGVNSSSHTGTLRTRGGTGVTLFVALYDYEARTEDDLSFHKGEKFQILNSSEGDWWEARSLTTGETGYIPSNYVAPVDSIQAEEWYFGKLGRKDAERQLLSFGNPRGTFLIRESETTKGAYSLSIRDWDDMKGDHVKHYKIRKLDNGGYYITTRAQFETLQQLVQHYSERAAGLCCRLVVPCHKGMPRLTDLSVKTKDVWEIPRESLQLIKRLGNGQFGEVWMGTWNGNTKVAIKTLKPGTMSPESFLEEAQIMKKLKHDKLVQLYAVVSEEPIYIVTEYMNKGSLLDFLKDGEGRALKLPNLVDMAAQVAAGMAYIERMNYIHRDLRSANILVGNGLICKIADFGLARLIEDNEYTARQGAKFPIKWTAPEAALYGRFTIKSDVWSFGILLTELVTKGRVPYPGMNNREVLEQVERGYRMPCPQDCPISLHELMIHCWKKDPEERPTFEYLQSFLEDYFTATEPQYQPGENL
Sequence of C-C chemokine receptor type 5 (P51681 whole entry): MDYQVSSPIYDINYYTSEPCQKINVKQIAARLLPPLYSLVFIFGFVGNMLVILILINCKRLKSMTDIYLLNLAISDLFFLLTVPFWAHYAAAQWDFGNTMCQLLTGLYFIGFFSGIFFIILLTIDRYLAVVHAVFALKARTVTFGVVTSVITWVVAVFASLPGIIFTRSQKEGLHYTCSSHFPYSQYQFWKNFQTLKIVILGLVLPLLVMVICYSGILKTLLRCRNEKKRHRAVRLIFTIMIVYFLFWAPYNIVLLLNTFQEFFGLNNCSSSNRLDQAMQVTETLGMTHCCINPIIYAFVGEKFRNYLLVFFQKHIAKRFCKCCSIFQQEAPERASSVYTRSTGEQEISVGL

Nn1nnc2ccccc21
Not Active: IC50 (Substance-K receptor) | IC50 [1] | IC50 [2] | IC50 [3] | Ki [3] | IC50 [4] | IC50 [5] | IC50 (Cytochrome P450 3A4) | Ki (Cytochrome P450 3A4)

CC[C@]1(O)CC[C@H]2[C@@H]3CCC4=CCCC[C@@H]4[C@H]3CC[C@@]21C
Not Active: IC50 (Substance-K receptor) | IC50 [1] | IC50 [2] | IC50 [3] | Ki [3] | IC50 [4] | IC50 [5] | IC50 (Cytochrome P450 3A4) | Ki (Cytochrome P450 3A4)

N[C@@H](Cc1ccc(F)cc1)C(=O)O
Not Active: IC50 (Substance-K receptor) | IC50 [1] | IC50 [2] | IC50 [3] | Ki [3] | IC50 [4] | IC50 [5]

CCOC(=O)[C@H](CCc1ccccc1)N[C@@H](C)C(=O)N1Cc2ccccc2C[C@H]1C(=O)O
Not Active: IC50 (Substance-K receptor) | IC50 [1] | IC50 [2] | IC50 [3] | Ki [3] | IC50 [4] | IC50 [5] | IC50 (Cytochrome P450 3A4) | Ki (Cytochrome P450 3A4)

O=C(c1ccccc1Cl)N1CCC(Cc2ccccc2)CC1
Not Active: IC50 (Substance-K receptor) | IC50 [1] | IC50 [2] | IC50 [3] | Ki [3] | IC50 [4] | IC50 [5] | IC50 (Cytochrome P450 3A4) | Ki (Cytochrome P450 3A4)

CCOC(=O)[C@H](CCc1ccccc1)N[C@@H](C)C(=O)N1CCC[C@H]1C(=O)O
Not Active: IC50 (Substance-K receptor) | IC50 [1] | IC50 [2] | IC50 [3] | Ki [3] | IC50 [4] | IC50 [5] | IC50 (Cytochrome P450 3A4) | Ki (Cytochrome P450 3A4)

Clc1cc2c(cc1Cl)Oc1cc(Cl)c(Cl)cc1O2 [2,3,7,8-TETRACHLORODIBENZO-P-DIOXIN]
Not Active: IC50 (Substance-K receptor) | IC50 [1] | IC50 [2] | IC50 [3] | Ki [3] | IC50 [4] | IC50 [5] | IC50 (Cytochrome P450 3A4) | Ki (Cytochrome P450 3A4)

C=C1/C(=C\C=C2/CCC[C@]3(C)[C@@H]([C@H](C)CCCC(C)C)CC[C@@H]23)C[C@@H](O)C[C@@H]1O [ALFACALCIDOL]
Not Active: IC50 (Substance-K receptor) | IC50 [1] | IC50 [2] | IC50 [3] | Ki [3] | IC50 [4] | IC50 [5] | IC50 (Cytochrome P450 3A4) | Ki (Cytochrome P450 3A4)

CCCCCC[C@H]1C(=O)O[C@H](C)[C@H](NC(=O)c2cccc(NC=O)c2O)C(=O)O[C@@H](C)[C@@H]1OC(=O)CC(C)C [ANTIMYCIN A]
Not Active: IC50 (Substance-K receptor) | IC50 [1] | IC50 [2] | IC50 [3] | Ki [3] | IC50 [4] | IC50 [5] | IC50 (Cytochrome P450 3A4) | Ki (Cytochrome P450 3A4)

C[C@@H]1CC[C@H]2[C@@H](C)C(=O)O[C@@H]3O[C@@]4(C)CC[C@@H]1[C@]32OO4 [ARTEMISININ]
Not Active: IC50 (Substance-K receptor) | IC50 [1] | IC50 [2] | IC50 [3] | Ki [3] | IC50 [4] | IC50 [5]

CO[C@H]1[C@@H](O)[C@H](N)[C@@H](O[C@H]2O[C@H]([C@H](C)N)CC[C@H]2N)[C@H](O)[C@@H]1N(C)C(=O)CN [ASTROMICIN]
Not Active: IC50 (Substance-K receptor) | IC50 [1] | IC50 [2] | IC50 [3] | Ki [3] | IC50 [4] | IC50 [5] | IC50 (Cytochrome P450 3A4) | Ki (Cytochrome P450 3A4)

[N-]=[N+]=CC(=O)OC[C@H](N)C(=O)O [AZASERINE]
Not Active: IC50 (Substance-K receptor) | IC50 [1] | IC50 [2] | IC50 [3] | Ki [3] | IC50 [4] | IC50 [5] | IC50 (Cytochrome P450 3A4) | Ki (Cytochrome P450 3A4)
